Measurements from the supplement of paper PMC4862054.

How the values were obtained:
Conditions in all cases: incubation time: 72 h
Hs578T [1] = test: normalised viability (% of control), CellTiter-Blue; higher = more viable cells (100 = DMSO, 0 = benzethonium chloride kill control)
Description: (§1)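 DSRT, CellTiter-Blue viability, 72 h incubation. Signal is normalised to DMSO and benzethonium chloride controls. Value is the normalised response at dose 1.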

MFM-223 [2] = test: as above
Description: as §1

MDA-MB-436 [3] = test: as above
Description: as §1

BT-474 [4] = test: as above
Description: as §1

MDA-MB-468 [5] = test: as above
Description: as §1

HDQ-P1 [6] = test: as above
Description: as §1

HCC1143 [7] = test: as above
Description: as §1

HCC1937 [8] = test: as above
Description: as §1

CAL-120 [9] = test: as above
Description: as §1

MDA-MB-231 [10] = test: as above
Description: as §1

SK-BR-3 [11] = test: as above
Description: as §1

CAL-85-1 [12] = test: as above
Description: as §1

DU-4475 [13] = test: as above
Description: as §1

CAL-51 [14] = test: as above
Description: as §1

BT-549 [15] = test: as above
Description: as §1

HCC1599 [16] = test: as above
Description: as §1

CAL-148 [17] = test: as above
Description: as §1

MDA-MB-453 [18] = test: as above
Description: as §1

Hs578T [19] = test: normalised response (% of control), CellTiter-Glo; higher = more viable cells (100 = DMSO, 0 = benzethonium chloride kill control)
Outline: (§2)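 CellTox Green fluorescence (485/520 nm) and, after 10 min at room temperature, CellTiter-Glo luminescence were read from breast cancer cell lines incubated 72 h in 384-well plates. Cells were seeded as 20 µl suspension onto compound at 5 concentrations in 10-fold steps over a 10,000-fold range chosen per compound. Each plate was normalised to 0.1 % DMSO (100) and a positive kill control (0). Values are normalised signals, one per concentration.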

MCF-10A = test: as above
Outline: as §2

MFM-223 [20] = test: as above
Outline: as §2

MDA-MB-436 [21] = test: as above
Outline: as §2

BT-474 [22] = test: as above
Outline: as §2

MDA-MB-468 [23] = test: as above
Outline: as §2

HDQ-P1 [24] = test: as above
Outline: as §2

HCC1143 [25] = test: as above
Outline: as §2

HCC1937 [26] = test: as above
Outline: as §2

CAL-120 [27] = test: as above
Outline: as §2

MDA-MB-231 [28] = test: as above
Outline: as §2

SK-BR-3 [29] = test: as above
Outline: as §2

CAL-85-1 [30] = test: as above
Outline: as §2

DU-4475 [31] = test: as above
Outline: as §2

CAL-51 [32] = test: as above
Outline: as §2

BT-549 [33] = test: as above
Outline: as §2

HCC1599 [34] = test: as above
Outline: as §2

CAL-148 [35] = test: as above
Outline: as §2

MDA-MB-453 [36] = test: as above
Outline: as §2

SMILES	normalised viability (Hs578T [1])	normalised viability (MFM-223 [2])	normalised viability (MDA-MB-436 [3])	normalised viability (BT-474 [4])	normalised viability (MDA-MB-468 [5])	normalised viability (HDQ-P1 [6])	normalised viability (HCC1143 [7])	normalised viability (HCC1937 [8])	normalised viability (CAL-120 [9])	normalised viability (MDA-MB-231 [10])	normalised viability (SK-BR-3 [11])	normalised viability (CAL-85-1 [12])	normalised viability (DU-4475 [13])	normalised viability (CAL-51 [14])	normalised viability (BT-549 [15])	normalised viability (HCC1599 [16])	normalised viability (CAL-148 [17])	normalised viability (MDA-MB-453 [18])	normalised response (Hs578T [19])	normalised response (MCF-10A)	normalised response (MFM-223 [20])	normalised response (MDA-MB-436 [21])	normalised response (BT-474 [22])	normalised response (MDA-MB-468 [23])	normalised response (HDQ-P1 [24])	normalised response (HCC1143 [25])	normalised response (HCC1937 [26])	normalised response (CAL-120 [27])	normalised response (MDA-MB-231 [28])	normalised response (SK-BR-3 [29])	normalised response (CAL-85-1 [30])	normalised response (DU-4475 [31])	normalised response (CAL-51 [32])	normalised response (BT-549 [33])	normalised response (HCC1599 [34])	normalised response (CAL-148 [35])	normalised response (MDA-MB-453 [36])
CCN(CCCOc1ccc2c(Nc3cc(CC(=O)Nc4cccc(F)c4)[nH]n3)ncnc2c1)CCOP(=O)(O)O [Barasertib] (0.1 nM)	135%	102%	118%	109%	112%	96.5%	107%	104%	95.5%	113%	108%	105%	123%	95.4%	103%	105%	105%	93.3%																			
C#Cc1cccc(Nc2ncnc3cc(OCCOC)c(OCCOC)cc23)c1 [Erlotinib] (1 nM)	84%	98.8%	99.6%	95%	107%	102%	86.6%	102%	85%	107%	108%	95.3%	89%	98.2%	111%	80.1%	97.8%	99.8%	106%	115%	105%	131%	101%	93%	100%	101%	104%	96.1%	101%	100%	102%	106%	107%	106%	97.1%	103%	116%
C[C@]12CC[C@@H]3c4ccc(O)cc4C[C@@H](CCCCCCCCC[S+]([O-])CCCC(F)(F)C(F)(F)F)[C@H]3[C@@H]1CC[C@@H]2O (stereo partly drawn) [Fulvestrant] (1 nM)	90.2%	74.9%	106%	70.6%	93.2%	93.6%	79.1%	87.6%	77.8%	79%	108%	78.7%	97.6%	111%	89.9%	94.6%	102%	100%	111%	103%	104%	105%	103%	97.8%	99.3%	105%	96.9%	97.4%	101%		101%	102%	119%	98.4%	90.3%	103%	112%
NC(=O)Nc1cc(-c2cccc(F)c2)sc1C(=O)N[C@H]1CCCNC1 [AZD 7762] (0.1 nM)	124%	108%	115%	115%	111%	132%	115%	119%	102%	115%	102%	107%	101%	101%	108%	89%	104%	117%																			
CO[C@H]1/C=C\C=C(/C)C(=O)NC2=CC(=O)C(NCCN(C)C)=C(C[C@@H](C)C[C@H](OC)[C@H](O)[C@@H](C)/C=C(\C)[C@@H]1OC(N)=O)C2=O [Alvespimycin] (0.1 nM)	117%	99.9%	98%	102%	104%	105%	103%	113%	100%	99.7%	104%	102%	108%	92.8%	91.9%	76%	102%	99.2%	91.2%	101%	107%	97.5%	105%	116%	94.8%	95.1%	92.7%	105%	98.5%	111%	100%	109%	69.6%	105%	112%	106%	111%
CN(N=O)C(=O)N[C@@H](C=O)[C@@H](O)[C@H](O)[C@H](O)CO [Streptozocin] (1 nM)	103%	92.8%	100%	81%	102%	116%	99%	99.1%	101%	106%	106%	91.4%	104%	110%	102%	132%	111%	111%	106%	113%	105%	104%	98.8%	97.5%	104%	105%	104%	103%	108%	106%	94.2%	95.7%	80.8%	102%	96.4%	102%	92.1%
CC(C)Cn1cnc2c(N)nc3ccccc3c21 [Imiquimod] (1 nM)	107%	97%	107%	90.6%	109%	104%	101%	118%	92.5%	85.8%	89.5%	108%	110%	101%	105%	109%	98.1%	108%																			
C[C@@H](Oc1cc(-c2cnn(C3CCNCC3)c2)cnc1N)c1c(Cl)ccc(F)c1Cl [Crizotinib] (1 nM)	90.5%	87.8%	74.1%	113%	91.4%	61.5%	86.5%	105%	90.6%	93.3%	98.5%	83.9%	101%	108%	75.4%	85.4%	101%	95.3%	101%	94.9%	101%	103%	101%	99.8%	96.4%	102%	105%	91.7%	108%		96.6%	105%	117%	91.8%	106%	91.3%	100%
NCC(=O)CCC(=O)O [Aminolevulinic acid] (1 nM)	104%	96.5%	105%	108%	103%	110%	91.7%	79.4%	86.6%	118%	89%	99.4%	107%	107%	91.1%	85%	109%	98.8%																			
CC(=O)Nc1ccc(C(=O)Nc2ccccc2N)cc1 [CI-994] (0.1 nM)	117%	105%	91.2%	86.4%	98.9%	107%	105%	102%	110%	91.9%	95.5%	98.3%	93.2%	89.6%	92.6%	92.6%	100%	101%																			
